According to ChEMBL document CHEMBL4390670, “4-Aryl Pyrrolidines as a Novel Class of Orally Efficacious Antimalarial Agents. Part 1: Evaluation of 4-Aryl- N-benzylpyrrolidine-3-carboxamides” (J Med Chem, 2019):

Key:
[1] = Half life in mouse liver microsomes at 1 uM measured after 30 mins in presence of NADPH by LC-MS/MS analysis; assay type: ADME, Microsome; details: microsomes, 0.5 h, 1 µM
Plasmodium falciparum [2] = experiment: Antimalarial activity against multidrug-resistant Plasmodium falciparum Dd2 measured after 72 hrs by SYBR Green 1 dye based fluorescence assay; assay type: functional, organism-based; details: Dd2, 72 h
[3] = Half life in mouse at 2 mg/kg, iv by LC-MS analysis; assay type: ADME, organism-based; details: in vivo
[4] = Apparent clearance in mouse at 2 mg/kg, iv by LC-MS analysis; assay type: ADME, organism-based; details: in vivo, read-out: CL(app)
[5] = Apparent volume of distribution in mouse at 2 mg/kg, iv by LC-MS analysis; assay type: ADME, organism-based; details: in vivo, read-out: Vz
Plasmodium chabaudi [6] = experiment: Antimalarial activity against chloroquine-resistant Plasmodium chabaudi ASCQ infected in NIH mouse assessed as inhibition of parasitemia at 3 mg/kg, po administered once daily for 4 days starting from 4 hrs post-infection and measured on day 4 by Peter's 4 day test relative to control; assay type: functional
Plasmodium chabaudi [7] = experiment: Antimalarial activity against chloroquine-resistant Plasmodium chabaudi ASCQ infected in NIH mouse assessed as inhibition of parasitemia at 10 mg/kg, po administered once daily for 4 days starting from 4 hrs post-infection and measured on day 4 by Peter's 4 day test relative to control; assay type: functional
Plasmodium chabaudi [8] = experiment: Antimalarial activity against chloroquine-resistant Plasmodium chabaudi ASCQ infected in NIH mouse assessed as inhibition of parasitemia at 30 mg/kg, po administered once daily for 4 days starting from 4 hrs post-infection and measured on day 4 by Peter's 4 day test relative to control; assay type: functional
Plasmodium chabaudi [9] = experiment: Antimalarial activity against chloroquine-resistant Plasmodium chabaudi ASCQ infected in po dosed NIH mouse assessed as inhibition of parasitemia administered starting from 4 hrs post-infection by Peter's 4 day test; assay type: functional
[10] = Time at which plasma concentration stays above in-vitro antimalarial IC50 for chloroquine-sensitive Plasmodium falciparum 3D7 in NIH mouse infected with chloroquine-resistant Plasmodium chabaudi ASCQ at 30 mg/kg/day, po; assay type: ADME, organism-based; details: in vivo
[11] = target: Voltage-gated inwardly rectifying potassium channel KCNH2 (Homo sapiens, UniProt Q12809)
Description: Inhibition of Tracer Red binding to human ERG expressed in membranes by fluorescence polarization assay

Plasmodium falciparum [12] = experiment: microbe, parasite or virus in culture; details: 3D7, 72 h
Description: Antimalarial activity against chloroquine-sensitive Plasmodium falciparum 3D7 measured after 72 hrs by SYBR Green 1 dye based fluorescence assay

[13] = Oral bioavailability in mouse at 5 mg/kg by LC-MS analysis; details: in vivo

Chain of Voltage-gated inwardly rectifying potassium channel KCNH2 (Q12809 whole entry): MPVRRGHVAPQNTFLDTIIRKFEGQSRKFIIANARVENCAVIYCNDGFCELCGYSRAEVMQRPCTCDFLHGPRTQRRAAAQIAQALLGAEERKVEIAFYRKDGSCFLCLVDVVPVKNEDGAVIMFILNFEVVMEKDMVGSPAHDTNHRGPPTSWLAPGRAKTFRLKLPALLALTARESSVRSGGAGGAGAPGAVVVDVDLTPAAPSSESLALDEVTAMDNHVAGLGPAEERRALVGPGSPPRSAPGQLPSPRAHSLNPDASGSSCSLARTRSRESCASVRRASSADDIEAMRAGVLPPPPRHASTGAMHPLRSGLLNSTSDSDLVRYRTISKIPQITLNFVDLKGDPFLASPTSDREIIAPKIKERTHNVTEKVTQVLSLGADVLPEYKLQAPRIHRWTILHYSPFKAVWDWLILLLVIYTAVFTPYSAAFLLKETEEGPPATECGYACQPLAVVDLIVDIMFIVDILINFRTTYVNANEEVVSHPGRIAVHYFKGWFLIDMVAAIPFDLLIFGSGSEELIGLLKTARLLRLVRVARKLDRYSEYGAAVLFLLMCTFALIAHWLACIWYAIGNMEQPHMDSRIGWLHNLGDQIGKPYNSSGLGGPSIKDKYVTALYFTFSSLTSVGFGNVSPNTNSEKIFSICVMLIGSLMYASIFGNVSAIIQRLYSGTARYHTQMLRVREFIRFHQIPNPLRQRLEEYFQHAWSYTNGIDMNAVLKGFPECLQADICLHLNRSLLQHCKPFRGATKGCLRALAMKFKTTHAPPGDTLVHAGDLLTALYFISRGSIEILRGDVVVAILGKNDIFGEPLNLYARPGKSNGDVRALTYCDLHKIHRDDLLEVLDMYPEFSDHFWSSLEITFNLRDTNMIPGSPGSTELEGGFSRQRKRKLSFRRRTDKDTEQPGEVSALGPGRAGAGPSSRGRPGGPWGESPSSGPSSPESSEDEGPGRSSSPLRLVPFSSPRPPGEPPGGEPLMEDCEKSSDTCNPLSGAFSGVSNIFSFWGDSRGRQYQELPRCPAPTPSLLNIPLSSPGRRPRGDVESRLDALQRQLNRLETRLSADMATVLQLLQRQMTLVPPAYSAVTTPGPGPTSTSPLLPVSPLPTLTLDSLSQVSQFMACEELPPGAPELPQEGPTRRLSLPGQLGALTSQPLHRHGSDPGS

C[C@H](NC(=O)[C@H]1CNC[C@@H]1c1ccc(C(F)(F)F)cc1)c1ccc(N(C)C)cc1
t1/2 [1]: 0.633 h | IC50 (Plasmodium falciparum [2]): 21 nM | half-life [3]: 4.4 h | clearance [4]: 3.3 mL/min/kg | Vd [5]: 1.3 L/kg | inhibition in vivo at 3 mg/kg (Plasmodium chabaudi [6]): 22.4% | inhibition in vivo at 10 mg/kg (Plasmodium chabaudi [7]): 75.2% | inhibition in vivo at 30 mg/kg (Plasmodium chabaudi [8]): 98.7% | ED90 (Plasmodium chabaudi [9]): 20 mg/kg/day | ED99 (Plasmodium chabaudi [9]): 30 mg/kg/day | Time [10]: 24 h | IC50 [11]: 32000 nM | IC50 (Plasmodium falciparum [12]): 46 to 51 nM | bioavailability [13]: 32%
